The source of these data is patent publication US20230165906A1, “COMPOSITIONS AND METHODS FOR USING TRANSPLANTED MICROGLIA AS A VEHICLE FOR WIDESPREAD DELIVERY OF CELLS AND OTHER BIOLOGIC AGENTS TO THE BRAIN” (Albert Einstein College of Medicine, priority 2020, published 2023).

The subject of test [1] is cultured human primary microglia. Briefly: Screening of human microglia for resistance to PLX5622-induced cell death. It counts as cell-based. The settings on record: for resistance to PLX5622-mediated cell ablation: mutant CSF1R expressed in cultured human primary microglia via retrovirus infection. An excerpt: (§1) FIGS. 5A-I show screening of human and mouse microglia for resistance to PLX5622. Human microglia (5A) are normally susceptible to CSF1R antagonist PLX5622-induced cell death (5B). […] Similarly, mouse microglia (5G) are normally susceptible to CSF1R antagonist-induced cell death (5H).
Although dispersion of mouse microglia was achieved using the protocol described in Example 2, continued genetic ablation of host microglia after transplantation of donor microglia cannot likely be used in a clinical setting. Therefore, to achieve dispersion of microglia independent of any genetic manipulations, a novel method to make microglia resistant to ablation by a CSF1R inhibitor such as PLX5622 was developed. Based on the mechanism of action of PLX5622 (antagonizing the critical CSF1R receptor), mutant forms of CSF1R that are constitutively active and potentially convey resistance to PLX5622 were screened (FIG. 5). […] Mutant CSF1Rs were expressed in human donor microglia via retrovirus infection. Such PLX5622-resistant microglia can then be transplanted to hosts in which endogenous microglia are continuously being depleted pharmacologically with PLX5622 post transplantation to allow donor microglia to outcompete residual endogenous microglia for repopulation. We are currently testing resistance of microglia expressing CSFIR^L301S and others to PLX5622 ablation in vivo.

For the next test, the system named is mouse microglia. Description: Screening of mouse microglia for resistance to PLX5622-induced cell death. It counts as cell-based. The settings on record: no mutant CSF1R.
From the text: as §1

The next test relates to host microglia. Description: Pharmacological ablation of host microglia in vivo (Iba1 staining). The settings on record: PLX5622 given to mice via chow for 7 days prior to transplantation. An excerpt: For pharmacological ablation of host microglia, PLX5622 (Plexxikon Inc.), a drug that inhibits CSF1R, was given to the mice via chow for 7 days prior to transplantation. This treatment kills approximately 90% of host microglia (FIG. 3). PLX5622 is a blood-brain-barrier permeable drug in clinical trials. Two days before transplantation, PLX5622 treatment was stopped to avoid potentially killing donor cells. […]. Thus, with daily injection of tamoxifen, donor microglia outcompete host microglia for repopulation.

Regarding “CSF1R^L301S: constitutively active gain-of-function mutant CSF1R expressed in donor microglia”, the “resistance to PLX5622-mediated cell ablation” value (“resistance” for short) in test [1] is “high resistance”.
Consider “CSR1R^Y571D: constitutively active gain-of-function mutant CSF1R expressed in donor microglia”, for which the “resistance” value in test [1] is listed as “high resistance”.
For “CSR1R^Y969F: constitutively active gain-of-function mutant CSF1R expressed in donor microglia”, in test [1], the “resistance” value is listed as “high resistance”.
Turning to `COc1ncc(F)cc1CNc1ccc(Cc2c[nH]c3ncc(C)cc23)c(F)n1` [PLX5622, 6-fluoro-N-[(5-fluoro-2-methoxypyridin-3-yl)methyl]-5-[(5-methyl-1H-pyrrolo[2,3-b]pyridin-3-yl)methyl]pyridin-2-amine], in the test with mouse microglia, the “susceptibility to CSF1R antagonist-induced cell death” value is “susceptible”. Also, the “susceptibility to CSF1R antagonist PLX5622-induced cell death” value in test [1] (human microglia, no mutant CSF1R) is given as “susceptible”. In addition, the host microglia killed entry in the test on host microglia is recorded as “approximately 90%”.
